Data reported in patent US12458622B2, “Methods of treatment of coronavirus-induced inflammation conditions” (priority 2020, dated 2025).
Where two headings read alike, the source gives them in different places.

Assays:
[1] = system: HMC3 human microglia cells; assay: MSD U-PLEX cytokine secretion induced by TNF-α; assay type: cell-based; settings: TNF-α induced, 24 hr; for inhibition at 3 µM: Homo sapiens, HMC3
Procedure: (§1) Human microglial cell line HMC3 (CRL-3304) was purchased from ATCC (American Type Culture Collection). HMC3 cell line was cultured in DMEM medium with 10% FBS, 1% L-glutamine, and 1% penicillin/streptomycin. Cells were maintained in 37° C. incubator at 5% CO2.
(§2) HMC3 cells were resuspended, counted using the LUNA-II Automated Cell Counter, seeded in the 6-well plate (400 K cells/2 mL medium/well), and incubated overnight to allow cells to attach. The media and detached cells were removed next day. The cell layer was washed three times in PBS and once in serum- and phenolred-free DMEM (SPFM). […] The conditioned medium was collected and centrifuged at 1,000×RCF (g) for 5 min to pellet detached cells and large debris, which was subsequently passed through a 0.22 μm filter with PVDF membrane to remove smaller debris. Samples of the supernatant medium were put in a CoolRack (#07210041, Fisher Scientific) on dry ice for Snap-freezing and kept at −80° C. until use.
(§3) Meso-scale U-PLEX plates that detect a cytokine panel including IL-1β, IL-2, IL-4, IL-6, IL-8, IL-10, IFN-γ, TNF-α, and a chemokine panel including IP-10/CXCL10, MCP-1/CCL2, MIP-1α/CCL3, MIP-1P/CCL4, Eotaxin/CCL11, were used as per manufacture's protocol. 25 μL of the conditioned medium was used in each well of the MSD plates to detect the analytes. The plates were then analyzed on an MSD QuickPlex SQ120 instrument.
(§4) All the data were presented as mean±standard error from at least three times, each done in triplicate. The statistical significance between two groups was determined by Student's t test, whereas the comparisons of multiple groups were carried out by one-way ANOVA, followed by Bonferroni's post-test using GraphPad Prism 7 (GraphPad Software, Inc.). A probability value of * p<0.05 was considered to be significant.

[2] = system: HMC3 human microglia cells; assay: MSD U-PLEX chemokine secretion induced by TNF-α; assay type: cell-based; settings: 0.3 μg/mL TNF-α, 24 hours; for inhibition at 3 µM: Homo sapiens, HMC3
Procedure: as §1, §2, §3, §4

Squirrel Monkeys = settings: 6 months, cited from earlier work

Which IFN-γ concentration ([1]; 0.3 μM) does the source give for `O=C(O)c1cc(=O)c2c(OCC(O)COc3cccc4oc(C(=O)O)cc(=O)c34)cccc2o1` [cromolyn] here?
Its IFN-γ concentration is “decreased”.

What about the IL-1β concentration ([1]; 0.3 μM) of the same compound?
Its IL-1β concentration is “decreased”.

What about the IL-6 concentration ([1]; 0.3 μM) of the same compound?
Its IL-6 concentration is “decreased”.

What about the IL-8 concentration ([1]; 0.3 μM) of the same compound?
Its IL-8 concentration is “decreased”.

And the inhibition at 3 µM ([1]; read-out: inhibition of IFN-γ)?
Its inhibition at 3 µM is over 40%.

And the inhibition at 3 µM ([1]; read-out: inhibition of IL-1β)?
The inhibition at 3 µM was over 40%.

What about the inhibition at 3 µM ([1]; read-out: inhibition of IL-6) of the same compound?
Its inhibition at 3 µM is over 40%.

And the inhibition at 3 µM ([1]; read-out: inhibition of IL-8)?
The inhibition at 3 µM was 25.8%.

What about the “extracellular IP-10 (CXCL10)” value ([2]; 0.3 μM) of the same compound?
Its value is “statistically significant reduction”.

What about the “extracellular MCP-1 (CCL2)” value ([2]; 0.3 μM) of the same compound?
Its value is “statistically significant reduction”.

And the “extracellular MIP-1α (CCL3)” value ([2]; 0.3 μM)?
Its value is “statistically significant reduction”.

What about the “extracellular MIP-1β (CCL4)” value ([2]; 0.3 μM) of the same compound?
The value was “statistically significant reduction”.

And the inhibition at 3 µM ([2]; read-out: inhibition of IP-10 (CXCL10))?
The inhibition at 3 µM was over 40%.

What about the inhibition at 3 µM ([2]; read-out: inhibition of MCP-1 (CCL2)) of the same compound?
Its inhibition at 3 µM is over 40%.

What about the inhibition at 3 µM ([2]; read-out: inhibition of MIP-1α (CCL3)) of the same compound?
Its inhibition at 3 µM is 35.6%.

What about the inhibition at 3 µM ([2]; read-out: inhibition of MIP-1β (CCL4)) of the same compound?
Its inhibition at 3 µM is over 40%.

And the “Ill health, general toxicity, or nasal irritation” value (Squirrel Monkeys; 2% cromolyn 0, 2, 6, 12 mg/day)?
The value was “No signs of ill health,”.

And the “Ill health, general toxicity, or nasal irritation” value (Squirrel Monkeys; 4% cromolyn 0, 5, 16, 32 mg/day)?
Its value is “No signs of ill health,”.
